This note sets out measurements from patent US20070099877A1, “N-aryl-thienopyrimidin-4-amines and analogs as activators of caspases and inducers of apoptosis and the use thereof” (Cytovia, Inc., priority 2005, published 2007).

Where a name gives a salt, the structure may show the parent alone.

The term EC50 denotes the concentration giving half of the maximal effect.

The first experiment has as its system human breast cancer cell line T-47D. The experiment in a line: Caspase cascade activation (DEVD-R110 fluorogenic substrate) in T-47D cells. As to conditions: Homo sapiens, T47D, 24 h, T47D cells, 24 h; read-out: Caspase activation Potency EC50 T47D (24 h). It counts as cell-based. Here is the method: (§1) Human breast cancer cell line T-47D, human lung cancer cell line H1299, human hepatocellular carcinoma cell line SNU398, human colon carcinoma cell line HCT116 were grown according to media component mixtures designated by American Type Culture Collection+10% FCS (Invitrogen Corporation), in a 5% CO2-95% humidity incubator at 37° C. T-47D and H1299 cells were maintained at a cell density between 50 and 80% confluency at a cell density of 0.1 to 0.6×10^6 cells/mL. Cells were harvested at 600×g and resuspended at 0.65×10^6 cells/mL into appropriate media+10% FCS. An aliquot of 22.5 μL of cells was added to a well of a 384-well microtiter plate containing 2.5 μL of a 10% DMSO in RPMI-1640 media solution containing 0.16 to 100 μM of N-(2,5-dimethoxyphenyl)-2-methylthieno[3,2-d]pyrimidin-4-amine or other test compound (0.016 to 10 μM final). An aliquot of 22.5 μL of cells was added to a well of a 384-well microtiter plate containing 2.5 μL of a 10% DMSO in RPMI-1640 media solution without test compound as the control sample. The samples were mixed by agitation and then incubated at 37° C. for 24 h or 48 h in a 5% CO2-95% humidity incubator. After incubation, the samples were removed from the incubator and 25 μL of a solution containing 14 μM of N-(Ac-DEVD)-N′-ethoxycarbonyl-R110 (SEQ ID NO.:1) fluorogenic substrate (Cytovia, Inc.; WO99/18856), 20% sucrose (Sigma), 20 mM DTT (Sigma), 200 mM NaCl (Sigma), 40 mM Na PIPES buffer pH 7.2 (Sigma), and 500 μg/mL lysolecithin (Calbiochem) was added. The samples were mixed by agitation and incubated at room temperature. Using a fluorescent plate reader (Model SPECTRAfluor Plus, Tecan), an initial reading (T=0) was made approximately 1-2 min after addition of the substrate solution, employing excitation at 485 nm and emission at 530 nm, to determine the background fluorescence of the control sample. After the 3 h incubation, the samples were read for fluorescence as above (T=3 h).
(§2) The Relative Fluorescence Unit values (RFU) were used to calculate the sample readings as follows: RFU(T=3h)−Control RFU(T=O)=Net RFU(T=3h)
(§3) The activity of caspase cascade activation was determined by the ratio of the net RFU value for N-(2,5-dimethoxyphenyl)-2-methylthieno[3,2-d]pyrimidin-4-amine or other test compound to that of control samples. The EC50 (nM) was determined by a sigmoidal dose-response calculation (Prism 3.0, GraphPad Software Inc.).
`COc1cccc(Nc2ncnc3ccsc23)c1OC` [Example 9, N-(2,3-Dimethoxyphenyl)thieno[3,2-d]pyrimidin-4-amine hydrochloride]: the EC50 is more than 10 µM.
The same measure, in the same setting: the result for `COc1ccc(OC)c(Nc2nc(-c3ccccc3)nc3ccsc23)c1` [Example 26, N-(2,5-Dimethoxyphenyl)-2-phenylthieno[3,2-d]pyrimidin-4-amine] reads 0.476 µM.
On to `COc1ccc([N+](=O)[O-])c(Nc2ncnc3ccsc23)c1` [Example 35, N-(5-Methoxy-2-nitrophenyl)thieno[3,2-d]pyrimidin-4-amine], for which the EC50 was more than 10 µM.
On to `COc1ccc(OC)c(Nc2ncnc3sc(C)c(C)c23)c1` [Example 34, N-(2,5-Dimethoxyphenyl)-5,6-dimethylthieno[2,3-d]pyrimidin-4-amine], for which the EC50 is more than 10 µM.
In the case of `COc1cccc(C)c1Nc1ncnc2ccsc12` [Example 30, N-(2-Methoxy-6-methylphenyl)thieno[3,2-d]pyrimidin-4-amine], the concentration giving a half-maximal response (EC50) is more than 10 µM.
Same read-out and setting: next, `COc1ccc(OC)c(Nc2ncnc3cc(I)sc23)c1` [Example 17, 6-Iodo-N-(2,5-dimethoxyphenyl)thieno[3,2-d]pyrimidin-4-amine hydrochloride]: 0.036 µM; `COc1ccc(OC)c(Nc2nc(SC)nc3ccsc23)c1` [Example 27, N-(2,5-Dimethoxyphenyl)-2-(methylthio)thieno[3,2-d]pyrimidin-4-amine]: 0.02 µM; `COc1ccc(Nc2ncnc3ccsc23)cc1` [Example 19, N-(4-Methoxyphenyl)thieno[3,2-d]pyrimidin-4-amine hydrochloride]: more than 10 µM.
The same measure, in the same setting: the result for `COc1ccc(OC)c(Nc2ncnc3c(C)csc23)c1` [Example 22, N-(2,5-Dimethoxyphenyl)-7-methylthieno[3,2-d]pyrimidin-4-amine] reads 0.114 µM; that for `Cc1cc(Nc2ncnc3ccsc23)no1` [Example 21, N-(5-Methylisoxazol-3-yl)thieno[3,2-d]pyrimidin-4-amine hydrochloride], more than 10 µM; that for `COc1ccc(OC)c(Nc2nc(C)nc3sccc23)c1` [Example 3, N-(2,5-Dimethoxyphenyl)-2-methylthieno[2,3-d]pyrimidin-4-amine], 0.121 µM.

Staying with this experiment, now noted: Homo sapiens, T47D, 48 h, T-47D cells, 48 h; read-out: Caspase activation Potency EC50 T-47D (48 h).
On to `COc1cccc(Nc2ncnc3ccsc23)c1OC` [Example 9, N-(2,3-Dimethoxyphenyl)thieno[3,2-d]pyrimidin-4-amine hydrochloride], for which the concentration giving a half-maximal response (EC50) is more than 10 µM.
On the same count and under the same terms, the result for `COc1ccc(OC)c(Nc2nc(-c3ccccc3)nc3ccsc23)c1` [Example 26, N-(2,5-Dimethoxyphenyl)-2-phenylthieno[3,2-d]pyrimidin-4-amine] reads 0.496 µM; that for `COc1ccc([N+](=O)[O-])c(Nc2ncnc3ccsc23)c1` [Example 35, N-(5-Methoxy-2-nitrophenyl)thieno[3,2-d]pyrimidin-4-amine], more than 10 µM.
`COc1ccc(OC)c(Nc2ncnc3sc(C)c(C)c23)c1` [Example 34, N-(2,5-Dimethoxyphenyl)-5,6-dimethylthieno[2,3-d]pyrimidin-4-amine]: the concentration for a half-maximal effect (EC50) is more than 10 µM.
For the compound `COc1cccc(C)c1Nc1ncnc2ccsc12` [Example 30, N-(2-Methoxy-6-methylphenyl)thieno[3,2-d]pyrimidin-4-amine], the EC50 is more than 10 µM.
On the same count and under the same terms, next, `COc1ccc(OC)c(Nc2ncnc3cc(I)sc23)c1` [Example 17, 6-Iodo-N-(2,5-dimethoxyphenyl)thieno[3,2-d]pyrimidin-4-amine hydrochloride]: 0.105 µM.
Turning to `COc1ccc(OC)c(Nc2nc(SC)nc3ccsc23)c1` [Example 27, N-(2,5-Dimethoxyphenyl)-2-(methylthio)thieno[3,2-d]pyrimidin-4-amine], the EC50 was found to be 0.036 µM.
In the case of `COc1ccc(Nc2ncnc3ccsc23)cc1` [Example 19, N-(4-Methoxyphenyl)thieno[3,2-d]pyrimidin-4-amine hydrochloride], the EC50 was more than 10 µM.
In the case of `COc1ccc(OC)c(Nc2ncnc3c(C)csc23)c1` [Example 22, N-(2,5-Dimethoxyphenyl)-7-methylthieno[3,2-d]pyrimidin-4-amine], the concentration giving a half-maximal response (EC50) turned out to be 0.233 µM.
Same read-out and setting: the result for `Cc1cc(Nc2ncnc3ccsc23)no1` [Example 21, N-(5-Methylisoxazol-3-yl)thieno[3,2-d]pyrimidin-4-amine hydrochloride] reads more than 10 µM.
Turning to `COc1ccc(OC)c(Nc2nc(C)nc3sccc23)c1` [Example 3, N-(2,5-Dimethoxyphenyl)-2-methylthieno[2,3-d]pyrimidin-4-amine], the concentration for a half-maximal effect (EC50) is 0.311 µM.

The next experiment concerns human colon carcinoma cell line HCT116. Kind of experiment: Caspase cascade activation in HCT116 cells. It counts as cell-based. Conditions: Homo sapiens, HCT-116, 48 h, read-out: Caspase activation Potency EC50 HCT116 (48 h). Here is the method: as §1, §2, §3
Consider `COc1cccc(Nc2ncnc3ccsc23)c1OC` [Example 9, N-(2,3-Dimethoxyphenyl)thieno[3,2-d]pyrimidin-4-amine hydrochloride], for which the EC50 is more than 10 µM.
The same measure, in the same setting: next, `COc1ccc(OC)c(Nc2nc(-c3ccccc3)nc3ccsc23)c1` [Example 26, N-(2,5-Dimethoxyphenyl)-2-phenylthieno[3,2-d]pyrimidin-4-amine]: more than 10 µM; `COc1ccc([N+](=O)[O-])c(Nc2ncnc3ccsc23)c1` [Example 35, N-(5-Methoxy-2-nitrophenyl)thieno[3,2-d]pyrimidin-4-amine]: more than 10 µM.
On to `COc1ccc(OC)c(Nc2ncnc3sc(C)c(C)c23)c1` [Example 34, N-(2,5-Dimethoxyphenyl)-5,6-dimethylthieno[2,3-d]pyrimidin-4-amine], for which the concentration giving a half-maximal response (EC50) was more than 10 µM.
Consider `COc1cccc(C)c1Nc1ncnc2ccsc12` [Example 30, N-(2-Methoxy-6-methylphenyl)thieno[3,2-d]pyrimidin-4-amine], for which the half-maximal effective concentration (EC50) is more than 10 µM.
Same read-out and setting: the result for `COc1ccc(OC)c(Nc2ncnc3cc(I)sc23)c1` [Example 17, 6-Iodo-N-(2,5-dimethoxyphenyl)thieno[3,2-d]pyrimidin-4-amine hydrochloride] reads 0.346 µM; that for `COc1ccc(OC)c(Nc2nc(SC)nc3ccsc23)c1` [Example 27, N-(2,5-Dimethoxyphenyl)-2-(methylthio)thieno[3,2-d]pyrimidin-4-amine], 0.319 µM.
Same read-out and setting: next, `COc1ccc(Nc2ncnc3ccsc23)cc1` [Example 19, N-(4-Methoxyphenyl)thieno[3,2-d]pyrimidin-4-amine hydrochloride]: more than 10 µM.
Same read-out and setting: next, `COc1ccc(OC)c(Nc2ncnc3c(C)csc23)c1` [Example 22, N-(2,5-Dimethoxyphenyl)-7-methylthieno[3,2-d]pyrimidin-4-amine]: 0.341 µM.
Turning to `Cc1cc(Nc2ncnc3ccsc23)no1` [Example 21, N-(5-Methylisoxazol-3-yl)thieno[3,2-d]pyrimidin-4-amine hydrochloride], the EC50 is more than 10 µM.
With `COc1ccc(OC)c(Nc2nc(C)nc3sccc23)c1` [Example 3, N-(2,5-Dimethoxyphenyl)-2-methylthieno[2,3-d]pyrimidin-4-amine], the concentration for a half-maximal effect (EC50) was 5.55 µM.

For another experiment, the system named is human hepatocellular carcinoma cell line SNU398. The experiment in a line: Caspase cascade activation in SNU398 cells. It counts as cell-based. Conditions: Homo sapiens, SNU-398, 48 h, read-out: Caspase activation Potency EC50 SNU398 (48 h). Here is the method:
as §1, §2, §3
Turning to `COc1cccc(Nc2ncnc3ccsc23)c1OC` [Example 9, N-(2,3-Dimethoxyphenyl)thieno[3,2-d]pyrimidin-4-amine hydrochloride], the concentration giving a half-maximal response (EC50) is more than 10 µM.
Consider `COc1ccc(OC)c(Nc2nc(-c3ccccc3)nc3ccsc23)c1` [Example 26, N-(2,5-Dimethoxyphenyl)-2-phenylthieno[3,2-d]pyrimidin-4-amine], for which the 50% effective concentration (EC50) is more than 10 µM.
Take `COc1ccc([N+](=O)[O-])c(Nc2ncnc3ccsc23)c1` [Example 35, N-(5-Methoxy-2-nitrophenyl)thieno[3,2-d]pyrimidin-4-amine]: the EC50 is more than 10 µM.
The same measure, in the same setting: next, `COc1ccc(OC)c(Nc2ncnc3sc(C)c(C)c23)c1` [Example 34, N-(2,5-Dimethoxyphenyl)-5,6-dimethylthieno[2,3-d]pyrimidin-4-amine]: more than 10 µM; `COc1cccc(C)c1Nc1ncnc2ccsc12` [Example 30, N-(2-Methoxy-6-methylphenyl)thieno[3,2-d]pyrimidin-4-amine]: more than 10 µM.
As to `COc1ccc(OC)c(Nc2ncnc3cc(I)sc23)c1` [Example 17, 6-Iodo-N-(2,5-dimethoxyphenyl)thieno[3,2-d]pyrimidin-4-amine hydrochloride], the 50% effective concentration (EC50) stood at 0.534 µM.
For the compound `COc1ccc(OC)c(Nc2nc(SC)nc3ccsc23)c1` [Example 27, N-(2,5-Dimethoxyphenyl)-2-(methylthio)thieno[3,2-d]pyrimidin-4-amine], the EC50 was determined as 0.206 µM.
On the same count and under the same terms, the result for `COc1ccc(Nc2ncnc3ccsc23)cc1` [Example 19, N-(4-Methoxyphenyl)thieno[3,2-d]pyrimidin-4-amine hydrochloride] reads more than 10 µM.
The same measure, in the same setting: the result for `COc1ccc(OC)c(Nc2ncnc3c(C)csc23)c1` [Example 22, N-(2,5-Dimethoxyphenyl)-7-methylthieno[3,2-d]pyrimidin-4-amine] reads more than 10 µM.
As to `Cc1cc(Nc2ncnc3ccsc23)no1` [Example 21, N-(5-Methylisoxazol-3-yl)thieno[3,2-d]pyrimidin-4-amine hydrochloride], the EC50 is more than 10 µM.
Still for that read-out and setting: the result for `COc1ccc(OC)c(Nc2nc(C)nc3sccc23)c1` [Example 3, N-(2,5-Dimethoxyphenyl)-2-methylthieno[2,3-d]pyrimidin-4-amine] reads 4.66 µM.

The test system of the next experiment is human lung cancer cell line H1299. Kind of experiment: Caspase cascade activation in H1299 cells. Type of experiment: cell-based. Conditions: NCI-H1299, 24 h, read-out: Caspase activation Potency EC50 H1299 (24 h). Here is the method: as §1, §2, §3
With `COc1cccc(Nc2ncnc3ccsc23)c1OC` [Example 9, N-(2,3-Dimethoxyphenyl)thieno[3,2-d]pyrimidin-4-amine hydrochloride], the EC50 was more than 10 µM.
Still for that read-out and setting: the result for `COc1ccc(OC)c(Nc2nc(-c3ccccc3)nc3ccsc23)c1` [Example 26, N-(2,5-Dimethoxyphenyl)-2-phenylthieno[3,2-d]pyrimidin-4-amine] reads 5.04 µM.
The same measure, in the same setting: next, `COc1ccc([N+](=O)[O-])c(Nc2ncnc3ccsc23)c1` [Example 35, N-(5-Methoxy-2-nitrophenyl)thieno[3,2-d]pyrimidin-4-amine]: more than 10 µM.
On the same count and under the same terms, the result for `COc1ccc(OC)c(Nc2ncnc3sc(C)c(C)c23)c1` [Example 34, N-(2,5-Dimethoxyphenyl)-5,6-dimethylthieno[2,3-d]pyrimidin-4-amine] reads more than 10 µM; that for `COc1cccc(C)c1Nc1ncnc2ccsc12` [Example 30, N-(2-Methoxy-6-methylphenyl)thieno[3,2-d]pyrimidin-4-amine], 5.11 µM; that for `COc1ccc(OC)c(Nc2ncnc3cc(I)sc23)c1` [Example 17, 6-Iodo-N-(2,5-dimethoxyphenyl)thieno[3,2-d]pyrimidin-4-amine hydrochloride], 0.299 µM.
In the case of `COc1ccc(OC)c(Nc2nc(SC)nc3ccsc23)c1` [Example 27, N-(2,5-Dimethoxyphenyl)-2-(methylthio)thieno[3,2-d]pyrimidin-4-amine], the half-maximal effective concentration (EC50) turned out to be 0.041 µM.
Regarding `COc1ccc(Nc2ncnc3ccsc23)cc1` [Example 19, N-(4-Methoxyphenyl)thieno[3,2-d]pyrimidin-4-amine hydrochloride], the EC50 was more than 10 µM.
Still for that read-out and setting: the result for `COc1ccc(OC)c(Nc2ncnc3c(C)csc23)c1` [Example 22, N-(2,5-Dimethoxyphenyl)-7-methylthieno[3,2-d]pyrimidin-4-amine] reads 5.03 µM; that for `Cc1cc(Nc2ncnc3ccsc23)no1` [Example 21, N-(5-Methylisoxazol-3-yl)thieno[3,2-d]pyrimidin-4-amine hydrochloride], more than 10 µM.
`COc1ccc(OC)c(Nc2nc(C)nc3sccc23)c1` [Example 3, N-(2,5-Dimethoxyphenyl)-2-methylthieno[2,3-d]pyrimidin-4-amine]: the EC50 was 5 µM.
